pIC50: −log10 of the molar value.

In general, pIC50 refers to the negative decadic logarithm of the IC50, by convention in mol/L. Low readings indicate a high IC50, high ones a low IC50.

The subject of the first assay is DOHH2 cells. In words: Cell proliferation assay in DOHH2 cells (MTS). The format is cell-based. Particulars: 120 h. As for the experimental part: To investigate whether a compound is able to inhibit the activity of BTK in cells, a mechanism-based assay using DOHH2 (DSMZ catalog #: ACC47) cell was developed. In this assay, inhibition of BTK was detected by the inhibition of DOHH2 cells proliferation. Cells were collected and plated onto 96-well plates at the optimized cell density (5000 cells/well). Plates were incubated at 37° C., with 5% CO2 for 4 h. Compounds were serially diluted and added to the plates with the final concentrations as 10000, 3333.3, 1111.1, 370.4, 123.5, 41.2, 13.7, 4.6 and 1.5 nM. Plates were incubated at 37° C., with 5% CO2 for 120 h. An aliquot of 20 μL MTS/100 μL medium mixture solution were added to each well and the plates were incubated for exactly 2 h. The reaction was stopped by adding 25 μL 10% SDS to each well. The absorbance was measured by a microplate reader at 490 nm and 650 nm (reference wavelength). IC50 was calculated using GraphPad Prism 5.0.
Select compounds prepared as described above were assayed according to the biological procedures described herein.
Consider `Cc1cc(Oc2ccccc2)ccc1C(=O)c1c[nH]c2ncc(C#N)c(N[C@@]34COC(CO)[C@@H]3C4)c12` (single isomer, unassigned) [Example 19], for which the pIC50 was 7.06.
Take `Cc1cc(Oc2ccccc2)ccc1C(=O)c1c[nH]c2ncc(C#N)c(N[C@@]34COC(CO)[C@@H]3C4)c12` (single isomer, unassigned) [Example 20]: the pIC50 is 7.70.
Compound `COc1cnc2[nH]cc(C(=O)c3ccc(Oc4ccccc4F)cc3C)c2c1N[C@@]12CO[C@H](CO)C1C2` (single isomer, unassigned) [Example 167] showed a pIC50 of 7.74.
With `COc1cnc2[nH]cc(C(=O)c3ccc(Oc4ccccc4F)cc3F)c2c1N[C@@]12CO[C@H](CO)C1C2` (single isomer, unassigned) [Example 168], the pIC50 is 8.10.
In turn, `COc1cnc2[nH]cc(C(=O)c3ccc(Oc4ccccc4F)cc3F)c2c1N[C@@]12CO[C@H](CO)C1C2` (single isomer, unassigned) [Example 169] gave a pIC50 of 7.19. This pIC50 lies 0.91 log units lower than the previous one.
In turn, `CCOc1cnc2[nH]cc(C(=O)c3ccc(Oc4ccccc4F)cc3C)c2c1N[C@@]12CO[C@H](CO)C1C2` (single isomer, unassigned) [Example 170] had a pIC50 of 7.92.
Still for that read-out and setting: next, `CCOc1cnc2[nH]cc(C(=O)c3ccc(Oc4ccccc4F)cc3C)c2c1N[C@@]12CO[C@H](CO)C1C2` (single isomer, unassigned) [Example 171]: 8.70; `CCOc1cnc2[nH]cc(C(=O)c3ccc(Oc4ccccc4F)cc3F)c2c1N[C@@]12CO[C@H](CO)C1C2` (single isomer, unassigned) [Example 172]: 9.00.
`CCOc1cnc2[nH]cc(C(=O)c3ccc(Oc4ccccc4F)cc3F)c2c1N[C@@]12CO[C@H](CO)C1C2` (single isomer, unassigned) [Example 173] showed a pIC50 of 8.15. This pIC50 lies 0.85 log units lower than the previous one.
On the same count and under the same terms, the result for `CCOc1cnc2[nH]cc(C(=O)c3ccc(Oc4ccccc4)cc3F)c2c1N[C@@]12CO[C@H](CO)C1C2` (single isomer, unassigned) [Example 181] reads 9.00; that for `CCOc1cnc2[nH]cc(C(=O)c3ccc(Oc4ccccc4)cc3F)c2c1N[C@@]12CO[C@H](CO)C1C2` (single isomer, unassigned) [Example 182], 7.51.

Still in this assay, the particulars now being: Homo sapiens, DOHH-2, 120 h.
The compound `N#Cc1cnc2[nH]cc(C(=O)c3ccc(Oc4ccccc4)cc3Cl)c2c1N[C@@]12COC(CO)[C@@H]1C2` (single isomer, unassigned) [Example 17] gave a pIC50 of 7.37.
On the same count and under the same terms, next, `COc1cnc2[nH]cc(C(=O)c3ccc(Oc4ccccc4F)cc3C)c2c1N[C@@]12CO[C@H](CO)C1C2` (single isomer, unassigned) [Example 166]: 7.68; `Cc1cc(Oc2ccccc2F)ccc1C(=O)c1c[nH]c2ncc(F)c(N[C@@]34CO[C@H](CO)C3C4)c12` (single isomer, unassigned) [Example 179]: 9.00.
Same read-out and setting: the result for `O=C(c1ccc(Oc2ccccc2)cc1Cl)c1c[nH]c2ncc(F)c(N[C@@H]3CC[C@@H](CO)OC3)c12` [Example 6, (2-chloro-4-phenoxyphenyl)(5-fluoro-4-(((3R,6S)-6-(hydroxymethyl)tetrahydro-2H-pyran-3-yl)amino)-1H-pyrrolo[2,3-b]pyridin-3-yl)methanone] reads 7.05; that for `N#Cc1cnc2[nH]cc(C(=O)c3ccc(Oc4ccccc4)cc3Cl)c2c1N[C@@H]1CC[C@@H](CO)OC1` [Example 7, 3-(2-chloro-4-phenoxybenzoyl)-4-(((3R,6S)-6-(hydroxymethyl)tetrahydro-2H-pyran-3-yl)amino)-1H-pyrrolo[2,3-b]pyridine-5-carbonitrile], 7.08; that for `O=C(c1ccc(Oc2ccccc2)cc1F)c1c[nH]c2nccc(N[C@@H]3CC[C@@H](CO)OC3)c12` [Example 10, (2-fluoro-4-phenoxyphenyl)(4-(((3R,6S)-6-(hydroxymethyl)tetrahydro-2H-pyran-3-yl)amino)-1H-pyrrolo[2,3-b]pyridin-3-yl)methanone], 7.72.
On to `Cc1cc(Oc2ccccc2)ccc1C(=O)c1c[nH]c2ncc(C#N)c(N[C@@H]3CC[C@@H](CO)OC3)c12` [Example 11, 4-(((3R,6S)-6-(hydroxymethyl)tetrahydro-2H-pyran-3-yl)amino)-3-(2-methyl-4-phenoxybenzoyl)-1H-pyrrolo[2,3-b]pyridine-5-carbonitrile], for which the pIC50 was 7.22.
Same read-out and setting: the result for `Cc1cc(Oc2ccccc2)ccc1C(=O)c1c[nH]c2nccc(N[C@@H]3CC[C@@H](CO)OC3)c12` [Example 13, (4-(((3R,6S)-6-(hydroxymethyl)tetrahydro-2H-pyran-3-yl)amino)-1H-pyrrolo[2,3-b]pyridin-3-yl)(2-methyl-4-phenoxyphenyl)methanone] reads 7.72; that for `Cc1cc(Oc2ccccc2)ccc1C(=O)c1c[nH]c2ncc(F)c(N[C@@H]3CC[C@@H](CO)OC3)c12` [Example 15, (5-fluoro-4-(((3R,6S)-6-(hydroxymethyl)tetrahydro-2H-pyran-3-yl)amino)-1H-pyrrolo[2,3-b]pyridin-3-yl)(2-methyl-4-phenoxyphenyl)methanone], 7.07; that for `O=C(c1ccc(Oc2ccccc2)cc1)c1c[nH]c2nccc(N[C@@H]3CC[C@@H](CO)OC3)c12` [Example 28, (4-(((3R,6S)-6-(hydroxymethyl)tetrahydro-2H-pyran-3-yl)amino)-1H-pyrrolo[2,3-b]pyridin-3-yl)(4-phenoxyphenyl)methanone], 7.49.
The compound `N#Cc1cnc2[nH]cc(C(=O)c3ccc(Oc4ccccc4)cc3)c2c1N[C@@H]1CC[C@@H](CO)OC1` [Example 29, 4-(((3R,6S)-6-(hydroxymethyl)tetrahydro-2H-pyran-3-yl)amino)-3-(4-phenoxybenzoyl)-1H-pyrrolo[2,3-b]pyridine-5-carbonitrile] showed a pIC50 of 7.00.
As for `O=C(c1ccc(Oc2ccccc2F)cc1Cl)c1c[nH]c2nccc(N[C@@H]3CC[C@@H](CO)OC3)c12` [Example 30, (2-chloro-4-(2-fluorophenoxy)phenyl)(4-(((3R,6S)-6-(hydroxymethyl)tetrahydro-2H-pyran-3-yl)amino)-1H-pyrrolo[2,3-b]pyridin-3-yl)methanone], the pIC50 was 7.68.
The same measure, in the same setting: the result for `N#Cc1cnc2[nH]cc(C(=O)c3ccc(Oc4ccccc4F)cc3Cl)c2c1N[C@@H]1CC[C@@H](CO)OC1` [Example 32, 3-(2-chloro-4-(2-fluorophenoxy)benzoyl)-4-(((3R,6S)-6-(hydroxymethyl)tetrahydro-2H-pyran-3-yl)amino)-1H-pyrrolo[2,3-b]pyridine-5-carbonitrile] reads 7.82.
The same measure, in the same setting: the result for `O=C(c1ccc(Oc2ccccc2)c(Cl)c1Cl)c1c[nH]c2nccc(N[C@@H]3CC[C@@H](CO)OC3)c12` [Example 36, (2,3-dichloro-4-phenoxyphenyl)(4-(((3R,6S)-6-(hydroxymethyl)tetrahydro-2H-pyran-3-yl)amino)-1H-pyrrolo[2,3-b]pyridin-3-yl)methanone] reads 7.16.
On the same count and under the same terms, next, `N#Cc1cnc2[nH]cc(C(=O)c3ccc(Oc4ccccc4)c(Cl)c3Cl)c2c1N[C@@H]1CC[C@@H](CO)OC1` [Example 37, 3-(2,3-dichloro-4-phenoxybenzoyl)-4-(((3R,6S)-6-(hydroxymethyl)tetrahydro-2H-pyran-3-yl)amino)-1H-pyrrolo[2,3-b]pyridine-5-carbonitrile]: 7.32; `Cc1nc(Oc2ccccc2)ccc1C(=O)c1c[nH]c2nccc(N[C@@H]3CC[C@@H](CO)OC3)c12` [Example 41, (4-(((3R,6S)-6-(hydroxymethyl)tetrahydro-2H-pyran-3-yl)amino)-1H-pyrrolo[2,3-b]pyridin-3-yl)(2-methyl-6-phenoxypyridin-3-yl)methanone]: 7.28.
For `O=C(c1c(F)cc(Oc2ccccc2)cc1F)c1c[nH]c2nccc(N[C@@H]3CC[C@@H](CO)OC3)c12` [Example 44, (2,6-difluoro-4-phenoxyphenyl)(4-(((3R,6S)-6-(hydroxymethyl)tetrahydro-2H-pyran-3-yl)amino)-1H-pyrrolo[2,3-b]pyridin-3-yl)methanone], the pIC50 is 8.15. This pIC50 is 0.87 log units higher than that of the compound before.
On the same count and under the same terms, next, `N#Cc1cnc2[nH]cc(C(=O)c3c(F)cc(Oc4ccccc4)cc3F)c2c1N[C@@H]1CC[C@@H](CO)OC1` [Example 45, 3-(2,6-difluoro-4-phenoxybenzoyl)-4-(((3R,6S)-6-(hydroxymethyl)tetrahydro-2H-pyran-3-yl)amino)-1H-pyrrolo[2,3-b]pyridine-5-carbonitrile]: 7.24; `Cc1cc(Oc2ccccc2F)ccc1C(=O)c1c[nH]c2nccc(N[C@@H]3CC[C@@H](CO)OC3)c12` [Example 46, (4-(2-fluorophenoxy)-2-methylphenyl)(4-(((3R,6S)-6-(hydroxymethyl)tetrahydro-2H-pyran-3-yl)amino)-1H-pyrrolo[2,3-b]pyridin-3-yl)methanone]: 9.00; `Cc1cc(Oc2cccc(F)c2)ccc1C(=O)c1c[nH]c2nccc(N[C@@H]3CC[C@@H](CO)OC3)c12` [Example 47, (4-(3-fluorophenoxy)-2-methylphenyl)(4-(((3R,6S)-6-(hydroxymethyl)tetrahydro-2H-pyran-3-yl)amino)-1H-pyrrolo[2,3-b]pyridin-3-yl)methanone]: 7.34.
On the same count and under the same terms, the result for `Cc1cc(Oc2ccccc2F)ccc1C(=O)c1c[nH]c2ncc(C#N)c(N[C@@H]3CC[C@@H](CO)OC3)c12` [Example 48, 3-(4-(2-fluorophenoxy)-2-methylbenzoyl)-4-(((3R,6S)-6-(hydroxymethyl)tetrahydro-2H-pyran-3-yl)amino)-1H-pyrrolo[2,3-b]pyridine-5-carbonitrile] reads 9.00.

The values above are taken from US20220235049A1, “SUBSTITUTED PYRROLO [2, 3-b] PYRIDINE AND PYRAZOLO [3,4-b] PYRIDINE DERIVATIVES AS PROTEIN KINASE INHIBITORS” (Fochon Pharmaceuticals, Ltd., priority 2019, published 2022).
